{"source": "patent US20240277798A1", "about": "“CYCLOSPORINE COMPOSITIONS AND METHODS OF USE” (Bacainn Biotherapeutics, Ltd., priority 2021, published 2024)", "key": {"FPR1": {"molecular_target": "T1, FPR1 (Homo sapiens, UniProt P21462)", "T1 construct": "endogenous in cells; host or cells: freshly isolated human neutrophils (PMNs), migrating across a T84 epithelial monolayer", "T1 sequence (P21462 1-350)": "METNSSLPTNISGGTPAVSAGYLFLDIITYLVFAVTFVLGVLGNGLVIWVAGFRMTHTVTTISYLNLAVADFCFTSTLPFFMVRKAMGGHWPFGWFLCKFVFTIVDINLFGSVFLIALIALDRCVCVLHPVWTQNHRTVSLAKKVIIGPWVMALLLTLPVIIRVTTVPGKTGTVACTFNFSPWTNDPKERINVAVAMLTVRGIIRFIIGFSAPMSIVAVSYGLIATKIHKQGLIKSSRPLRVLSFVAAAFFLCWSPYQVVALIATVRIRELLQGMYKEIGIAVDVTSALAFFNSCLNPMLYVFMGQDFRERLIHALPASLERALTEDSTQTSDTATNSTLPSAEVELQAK", "assay": "Inhibition of FPR1 measured as inhibition of fMLP-induced neutrophil transmigration across T84 monolayer", "type": "cell-based", "settings": "FIG. 3B", "procedure": "T84 colorectal cancer cells were grown to confluence on the bottom side of 12 well polycarbonate membrane inserts of a 24 well Transwell® plate. The confluent growth of these epithelial cells results in physiologically-relevant apical (luminal) and basolateral surfaces in the transwells. Freshly isolated and prepared human neutrophils were pretreated in compound (BT051 or cyclosporine A) for 1 hour on ice.\nBT051 or cyclosporine A was added to the apical surface of the monolayer. The potent neutrophil chemoattractant, N-formyl-methionyl-leucyl-phenylalanine (fMLP) (100 nM), which activates neutrophil migration via its interaction with the FPR1 protein on neutrophils, was also added to the apical side of the monolayer. The compound-treated neutrophils were then added to the basolateral side and allowed to transmigrate through the monolayer for 2 hours. The number of neutrophils migrated to the apical chamber (due to the fMLP gradient) was then assayed by determination of myeloperoxidase activity (a neutrophil biomarker). Inhibition of transmigration is indicated by lower MPO activity in the apical chamber.\nT84 colorectal cancer cells are grown to confluence on the bottom side of 12 well polycarbonate membrane inserts of a 24 well Transwell® plate. The confluent growth of these epithelial cells results in physiologically-relevant apical (luminal) and basolateral surfaces in the transwells. […]"}, "SGF FeSSIF stability": {"assay": "SGF FeSSIF stability", "type": "in vitro ADME", "settings": "10 μM, 37° C., 6 hours, predicted", "procedure": "SGF FeSSIF Stability Procedure. BT090 (10 μM) was incubated in duplicate at 37° C. for a total of 6 hours in simulated gastric fluid (SGF) (Ricca, Arlington, TX) and Fed State Simulated Intestinal Fluid (FeSSIF) (Biorelevant, London, UK). The reactions were initiated by spiking the test articles (1 mM water stock solutions) in their respective buffers. At selected time points (0, 0.5, 1, 2, 4, and 6 hours), a 50 μL aliquot was taken from the incubation mixtures and frozen at −80° C. At the end of the incubation period, 200 μL of 50:50 acetonitrile:water containing the internal standards (IS) were added to every tube and vortexed thoroughly. The 0 hour samples were prepared in pre-quenched SGF or FeSSIF. All quenched samples were then submitted to bioanalysis for LC-MS/MS quantification.\nBioanalysis. BT090 samples were analyzed by LC-MS/MS using a Thermo Accela UPLC and a Thermo Q-Exactive mass spectrometer. The [M+H]+ adducts of the compounds and internal standards were monitored using positive mode electrospray ionization in exact mass mode. […]\nSGF FeSSIF Stability Procedure. […] All quenched samples are then submitted to bioanalysis for LC-MS/MS quantification.\nBioanalysis. […] The [M+H]+ adducts of the compounds and internal standards are monitored using positive mode electrospray ionization in exact mass mode. […]"}, "[1]": {"assay": "Amount excreted in feces after oral dosing in rats", "type": "in vivo, Sprague-Dawley rats", "settings": "rat, individual animals"}, "[2]": {"settings": "BT070 10 mg/kg orally, 0-24 h, 10 mg/kg"}}, "note": "Values joined by “and” are separate entries in the source; they are usually repeats but may differ in a detail not shown here. Equal entries are not always repeated.", "data": [{"smiles": "CC[C@@H]1NC(=O)[C@H]([C@H](O)[C@H](C)CCCCCC(=O)O)N(C)C(=O)[C@H](C(C)C)N(C)C(=O)[C@H](CC(C)C)N(C)C(=O)[C@H](CC(C)C)N(C)C(=O)[C@@H](C)NC(=O)[C@H](C)NC(=O)[C@H](CC(C)C)N(C)C(=O)[C@H](C(C)C)NC(=O)[C@H](CC(C)C)N(C)C(=O)CN(C)C1=O", "note": "[BT070]", "values": [{"measurement": "inhibition of PMN transmigration/activation", "setting": "FPR1; concentration not given", "result": "approximately 50%"}, {"measurement": "fMLP-mediated PMN transmigration/activation", "setting": "FPR1; result in words", "result": "inhibit"}, {"measurement": "stability in simulated gastric fluid (SGF)", "setting": "SGF FeSSIF stability", "result": "stable"}, {"measurement": "stability in simulated intestinal fluid (FeSSIF)", "setting": "SGF FeSSIF stability", "result": "stable"}, {"measurement": "Amount in feces", "setting": "[1]; BT070 10 mg/kg orally, 0-4 h", "result": 561.4, "unit": "ng"}, {"measurement": "% of dose excreted unchanged in feces", "setting": "[1]; [2]", "result": "44.6% and 9.0% and 72.2%"}, {"measurement": "Total amount excreted unchanged in feces", "setting": "[1]; [2]", "result": "1212482.2 ng and 252675.5 ng and 1891835.1 ng"}, {"measurement": "Amount in feces", "setting": "[1]; BT070 10 mg/kg orally, 4-8 h, 10 mg/kg", "result": "181805.0 ng and 875239.4 ng"}, {"measurement": "Amount in feces", "setting": "[1]; BT070 10 mg/kg orally, 8-24 h, 10 mg/kg", "result": "1030677.2 ng and 252114.1 ng and 1016595.6 ng"}, {"measurement": "Total amount excreted in feces", "setting": "[1]; BT070 as breakdown product after BT051 10 mg/kg orally, 0-48 h", "result": "36.9 µg and 33.4 µg and 41.4 µg and 38.5 µg"}, {"measurement": "Amount in feces", "setting": "[1]; BT070 as breakdown product after BT051 10 mg/kg orally, 8-24 h", "result": "31200 ng and 14300 ng and 10600 ng and 34800 ng"}, {"measurement": "Amount in feces", "setting": "[1]; BT070 as breakdown product after BT051 10 mg/kg orally, 24-48 h", "result": "5700 ng and 19100 ng and 30800 ng and 3700 ng"}]}]}
